# Results: article PMC5344255, “Design, Synthesis and Biochemical Evaluation of Novel Selective Estrogen Receptor Ligand Conjugates Incorporating an Endoxifen-Combretastatin Hybrid Scaffold” (Biomedicines, 2016)
# Where “and” joins values, the source holds several entries; their conditions need not be identical. Equal entries are not always repeated. Where two headings read alike, the source gives them in different places. Marks after values point to notes of the source that are not given here.
# Columns and labels:
# UACC-62 = experiment: NCI 60 cell line screen; assay type: cell-based, human; conditions: UACC-62 (Melanoma); one-dose 10 µM
# HOP-62 = experiment: NCI 60 cell line screen; assay type: cell-based, human; conditions: HOP-62 (Non-Small Cell Lung Cancer)
# [1] = system: MDA-MB-231 human breast cancer cells; experiment: Lactate dehydrogenase (LDH) cytotoxicity assay in MDA-MB-231; assay type: cell-based; conditions: % cell lysis at 10 μM
# Procedure, shortened: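 Cells seeded at 1 × 10^4 per well and grown 24 h, then dosed with compounds over 1 nM–50 μM. Cell lysis quantified as released cytoplasmic LDH using the CytoTox 96 nonradioactive cytotoxicity assay.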
# OVCAR-4 = experiment: NCI 60 cell line screen; assay type: cell-based, human; conditions: OVCAR-4 (Ovarian Cancer); one-dose 10 µM
# NCI-H552 = experiment: NCI 60 cell line screen; assay type: cell-based, human; conditions: NCI-H552 (Non-Small Cell Lung Cancer)
# MOLT-4 = experiment: NCI 60 cell line screen; assay type: cell-based, human; conditions: MOLT-4 (Leukemia)
# NCI 60 cell lines = experiment: NCI 60 cell line screen, values over the panel; assay type: cell-based; conditions: Homo sapiens
# HCT-116 = experiment: NCI 60 cell line screen; assay type: cell-based, human; conditions: HCT-116 (Colon Cancer)
# 786-0 = experiment: NCI 60 cell line screen; assay type: cell-based, human; conditions: 786-0 (Renal Cancer); one-dose 10 µM
# OVCAR-3 = experiment: NCI 60 cell line screen; assay type: cell-based, human; conditions: OVCAR-3 (Ovarian Cancer); one-dose 10 µM
# HCT-15 = experiment: NCI 60 cell line screen; assay type: cell-based, human; conditions: HCT-15 (Colon Cancer)
# COLO 205 = experiment: NCI 60 cell line screen; assay type: cell-based
# SNB-19 = experiment: NCI 60 cell line screen; assay type: cell-based, human; conditions: SNB-19 (CNS Cancer)
# MALME-3M = experiment: NCI 60 cell line screen; assay type: cell-based, human; conditions: MALME-3M (Melanoma); one-dose 10 µM
# HL-60 (TB) = experiment: NCI 60 cell line screen; assay type: cell-based, human; conditions: HL-60 (TB) (Leukemia)
# HT29 = experiment: NCI 60 cell line screen; assay type: cell-based, human; conditions: HT29 (Colon Cancer)
# NCI-H226 = experiment: NCI 60 cell line screen; assay type: cell-based, human
# SF539 = experiment: NCI 60 cell line screen; assay type: cell-based, human; conditions: SF539 (CNS Cancer)
# CCRF-CEM = experiment: NCI 60 cell line screen; assay type: cell-based, human; conditions: CCRF-CEM (Leukemia)
# BT-549 = experiment: NCI 60 cell line screen; assay type: cell-based, human; conditions: BT-549 (Breast Cancer); one-dose 10 µM
# EKVX = experiment: NCI 60 cell line screen; assay type: cell-based, human; conditions: EKVX (Non-Small Cell Lung Cancer)
# NCI-H23 = experiment: NCI 60 cell line screen; assay type: cell-based
# LOX IMV1 = experiment: NCI 60 cell line screen; assay type: cell-based, human; conditions: LOX IMV1 (Melanoma); one-dose 10 µM
# MDA-MB-231/ATCC = experiment: NCI 60 cell line screen; assay type: cell-based, human; conditions: MDA-MB-231/ATCC (Breast Cancer); one-dose 10 µM
# M14 = experiment: NCI 60 cell line screen; assay type: cell-based, human; conditions: M14 (Melanoma); one-dose 10 µM
# MDA-MB-468 = experiment: NCI 60 cell line screen; assay type: cell-based, human; conditions: MDA-MB-468 (Breast Cancer); one-dose 10 µM
# OVCAR-5 = experiment: NCI 60 cell line screen; assay type: cell-based, human; conditions: OVCAR-5 (Ovarian Cancer); one-dose 10 µM
# IGROV1 = experiment: NCI 60 cell line screen; assay type: cell-based, human; conditions: IGROV1 (Ovarian Cancer); one-dose 10 µM
# RPMI-8226 = experiment: NCI 60 cell line screen; assay type: cell-based, human; conditions: RPMI-8226 (Leukemia)
# NCI-H332M = experiment: NCI 60 cell line screen; assay type: cell-based, human; conditions: NCI-H332M (Non-Small Cell Lung Cancer)
# U251 = experiment: NCI 60 cell line screen; assay type: cell-based, human; conditions: U251 (CNS Cancer)
# SR = experiment: NCI 60 cell line screen; assay type: cell-based, human; conditions: SR (Leukemia)
smiles,measurement,setting,value
"CCC(=C(c1ccc(O)cc1)c1ccc(OCCN(C)C(=O)/C(=C/c2ccc(OC)c(O)c2)c2cc(OC)c(OC)c(OC)c2)cc1)c1ccc(O)cc1 (mixture of isomers) [Compound 28, (E)-N-(2-{4-[(E/Z)-1,2-Bis-(4-hydroxyphenyl)but-1-enyl]-phenoxy}ethyl)-3-(3-hydroxy-4-methoxyphenyl)-N-methyl-2-(3,4,5-trimethoxyphenyl)acrylamide]",GI% (10^−5 M),UACC-62,0.922%
same,GI% (10^−5 M),HOP-62; one-dose 10 µM,81.99%
same,GI50,"HOP-62; Homo sapiens, five-dose screen",2860 nM
same,% Cell Death at 10 μM,[1],15%
same,GI% (10^−5 M),OVCAR-4,2.59%
same,GI50,"NCI-H552; Homo sapiens, 60 cell, five-dose screen",1390 nM
same,GI% (10^−5 M),NCI-H552; one-dose 10 µM,"100 ^d,h %"
same,GI50,"MOLT-4; Homo sapiens, five-dose screen",1520 nM
same,GI% (10^−5 M),MOLT-4; one-dose 10 µM,64.31%
same,CC50,"NCI 60 cell lines; in all but 4 cell lines of the panel, read-out: LC50 (the source's name)",> 50000 nM
same,GI50,"NCI 60 cell lines; read-out: MG-MID, mean GI50",1450 nM
same,GI50,NCI 60 cell lines; read-out: log GI50 (mean) (converted),1620 nM
same,inhibition at 10 µM,NCI 60 cell lines; read-out: mean growth inhibition value,98.7%
same,GI% (10^−5 M),HCT-116; one-dose 10 µM,98% and 97.57%
same,GI50,"HCT-116; Homo sapiens, five-dose screen",1800 nM
same,GI% (10^−5 M),786-0,1.91%
same,GI% (10^−5 M),OVCAR-3,1%
same,GI% (10^−5 M),HCT-15; one-dose 10 µM,"100 ^d,k %"
same,GI50,"HCT-15; Homo sapiens, five-dose screen",1530 nM
same,GI% (10^−5 M),"COLO 205; COLO 205 (Colon Cancer), one-dose 10 µM","100 ^d,i %"
same,GI50,"COLO 205; Homo sapiens, COLO 205",2150 nM
same,LC50,"COLO 205; Homo sapiens, COLO 205, five-dose screen",26200 nM
same,GI50,"SNB-19; Homo sapiens, five-dose screen",1720 nM
same,GI% (10^−5 M),SNB-19; one-dose 10 µM,81.49%
same,GI% (10^−5 M),MALME-3M,1.76%
same,GI% (10^−5 M),HL-60 (TB); one-dose 10 µM,"100 ^d,f %"
same,GI50,"HL-60 (TB); Homo sapiens, five-dose screen",1400 nM
same,GI% (10^−5 M),HT29; one-dose 10 µM,"100 ^d,l %"
same,GI50,"HT29; Homo sapiens, HT-29, five-dose screen",1160 nM
same,GI50,"NCI-H226; Homo sapiens, NCI-H226 (Non-Small Cell Lung Cancer), five-dose screen",1180 nM
same,GI% (10^−5 M),"NCI-H226; NCI-H226 (Non-Small Cell Lung Cancer), one-dose 10 µM","100 ^d,g %"
same,lethality,"NCI-H226; NCI-H226, one-dose screen 10 μM",73%
same,GI50,"SF539; Homo sapiens, SF-539, five-dose screen",1180 nM
same,GI% (10^−5 M),SF539; one-dose 10 µM,"100 ^d,n %"
same,GI% (10^−5 M),CCRF-CEM; one-dose 10 µM,72.48%
same,GI50,"CCRF-CEM; Homo sapiens, five-dose screen",1770 nM
same,GI% (10^−5 M),BT-549,1.12%
same,GI% (10^−5 M),EKVX; one-dose 10 µM,85.11%
same,GI50,"EKVX; Homo sapiens, five-dose screen",2010 nM
same,GI50,"NCI-H23; Homo sapiens, NCI-H23",2190 nM
same,LC50,"NCI-H23; Homo sapiens, NCI-H23, five-dose screen",48900 nM
same,GI% (10^−5 M),"NCI-H23; NCI-H23 (Non-Small Cell Lung Cancer), one-dose 10 µM",97% and 96.76%
same,GI% (10^−5 M),LOX IMV1,1.55%
same,GI% (10^−5 M),MDA-MB-231/ATCC,1.61%
same,GI% (10^−5 M),M14,1.68%
same,GI% (10^−5 M),MDA-MB-468,1.12%
same,GI% (10^−5 M),OVCAR-5,3.21%
same,GI% (10^−5 M),IGROV1,2.3%
same,GI50,"RPMI-8226; Homo sapiens, five-dose screen",896 nM
same,GI% (10^−5 M),RPMI-8226; one-dose 10 µM,91% and 90.65%
same,GI50,"NCI-H332M; Homo sapiens, five-dose screen",2020 nM
same,GI% (10^−5 M),NCI-H332M; one-dose 10 µM,81.7%
same,GI50,"U251; Homo sapiens, U-251, five-dose screen",1740 nM
same,GI% (10^−5 M),U251; one-dose 10 µM,93% and 93.37%
same,GI50,"SR; Homo sapiens, five-dose screen",2350 nM
same,GI% (10^−5 M),SR; one-dose 10 µM,69.03%
